Tests used:
Format in all cases: cell-based, human
Collagen IV = test: Expression of collagen IV in NHEK, in situ immunofluorescence; details: 72 hours
Method: (§1) The effects of the Aureobasidium pullulans extract and C-β-D-xylopyranoside-2-hydroxypropane (C-Xyloside, Pro-Xylane™) and a combination thereof were evaluated on normal human epidermal keratinocytes (NHEK) by analysing the expression of markers by in situ immunofluorescence labelling and image analysis: • expression of the differentiation markers: Transglutaminase K (TGK), filaggrin and involucrin, • expression of the tight junction proteins: claudin-1, zonula occludens-1 (ZO-1) and occludin,
The compounds were tested at a non-cytotoxic concentration. • Normal human keratinocytes: NHEK, Bioalternatives reference K341 used at third passage. • Culture conditions: 37° C., 5% CO2 • Culture medium: Keratinocyte SFM (serum free medium) supplemented with Epidermal Growth Factor Pituitary extract • Test medium: Keratinocyte SFM (serum free medium) […]
(§2) The labelling was quantified by measuring the fluorescence intensity and normalizing the fluorescence intensity relative to the total number of cells (Digital data integration with Developer Toolbox 1.5 software, GE Healthcare).

filaggrin [1] = test: Expression of filaggrin in NHEK, in situ immunofluorescence; details: 72 hours
Method: as §1
(§3) The compounds were tested at a non-cytotoxic concentration. • Normal human keratinocytes: NHEK, Bioalternatives reference K341 used at third passage. • Culture conditions: 37° C., 5% CO2 • Culture medium: Keratinocyte SFM (serum free medium) supplemented with Epidermal Growth Factor Pituitary extract • Test medium: Keratinocyte SFM (serum free medium)
The keratinocytes were seeded in a 96-well plate and grown in culture medium for 192 hours with renewal of the culture medium after 24 and 96 hours. The medium was then replaced with a test medium containing or not containing (control) the test compounds, the combination or the reference compound and the cells were incubated for 72 hours.
(§4) The cells were rinsed with PBS solution, fixed and permeabilized. The cells were then labelled using a specific primary antibody (Table 13).
(§5) Image acquisition (five photos/well) was performed using an INCell Analyzer™ 2200 (GE Healthcare, x20 objective).
as §2

Transglutaminase K (TGK) = test: Expression of TGK in NHEK, in situ immunofluorescence; details: 72 hours
Method: as §1, §3
(§6) The keratinocytes were seeded in 96-well plates and cultured in culture medium for 24 hours. The medium was then replaced with a test medium containing or not containing (control) the test compounds, the combination or the reference compound and the cells were incubated for 72 hours.
as §4, §5, §2

occludin = test: Expression of occludin in NHEK, in situ immunofluorescence; details: 144 hours
Method: as §1, §3
The keratinocytes were seeded in 96-well plates and cultured in culture medium for 24 hours. […]
as §2

[2] = system: zonula occludens-1 (ZO-1); test: Expression of ZO-1 in NHEK, in situ immunofluorescence; details: 72 hours
Method: as §1, §3, §6, §4, §5, §2

involucrin [3] = test: Expression of involucrin in NHEK, in situ immunofluorescence; details: 144 hours
Method: as §1, §3
The keratinocytes were seeded in 96-well plates and cultured in culture medium for 24 hours. The medium was then replaced with a test medium containing or not containing (control) the test compounds, the combination or the reference compound and the cells were incubated for 144 hours with a repeat treatment after 72 hours.
as §4, §5, §2

claudin-1 [4] = test: Expression of claudin-1 in NHEK, in situ immunofluorescence; details: 72 hours
Method: as §1, §3, §6, §4, §5, §2

loricrin = test: Loricrin synthesis by immunohistofluorescence in reconstructed epidermis; details: day 9 to day 17, 250 μm
Method: (§7) Human keratinocytes were seeded onto inserts and then incubated at 37° C. in an atmosphere containing 5% CO2. Between the second and ninth day of incubation, the culture medium was changed every two days. […] On day 17, the reconstructed skins were then recovered and processed in different ways depending on the analysis test performed, namely: • for immunohistofluorescence analysis, the reconstructed skins were recovered, fixed, dehydrated and embedded in paraffin. 4 μm sections were then produced using a microtome (Leica). • for a QPCR test, the reconstructed skins were recovered and the RNAs were extracted in their entirety. The following primary antibodies were used for this test: • Mouse anti-filaggrin monoclonal antibody • Rabbit anti-loricrin polyclonal antibody • Mouse anti-claudin-1 monoclonal antibody The secondary antibodies used were as follows: • Alexa Fluor® 488-coupled rabbit anti-IgG antibody • Alexa Fluor® 488-coupled mouse anti-IgG antibody Visualization was performed using an IX 70 microscope (Olympus) coupled to an image analysis system (NIS-Elements software, Nikon). The content of the various markers synthesized was proportional to the intensity of the green fluorescence present on the reconstructed epidermis samples. Quantification was performed by means of an image analysis script in Python language. The results are expressed in arbitrary units (AU).

TGM1 = test: Quantitative PCR analysis of TGM1 expression in reconstructed epidermis; details: QPCR, 250 μm, control = 100
Method: (§8) Human keratinocytes were seeded onto inserts and then incubated at 37° C. in an atmosphere containing 5% CO2. Between the second and ninth day of incubation, the culture medium was changed every two days. […] On day 17, the reconstructed skins were then recovered and processed in different ways depending on the analysis test performed, namely: • for immunohistofluorescence analysis, the reconstructed skins were recovered, fixed, dehydrated and embedded in paraffin. 4 μm sections were then produced using a microtome (Leica). • for a QPCR test, the reconstructed skins were recovered and the RNAs were extracted in their entirety. For this analysis, the RNAs were reverse-transcribed and the complementary DNAs obtained were analysed via a quantitative PCR technique. The mRNAs of the RPS18, GAPDH and GUSB proteins, the reference internal controls, were analysed in parallel with the mRNAs of ZO-1, CK10, involucrin and TGM1. Quantification of fluorescence incorporation (SYBR Green) was measured continuously using a LightCycler LC480 thermal cycler (Roche) and Ct analysis (relative quantification) was performed using the LC480 software (Roche).

CK10 = test: Quantitative PCR analysis of CK10 expression in reconstructed epidermis; details: QPCR, 250 μm, control = 100
Method: as §8

claudin-1 [5] = test: Claudin-1 synthesis by immunohistofluorescence in reconstructed epidermis
Method: as §7

ZO-1 = test: Quantitative PCR analysis of ZO-1 expression in reconstructed epidermis; details: QPCR, 250 μm, control = 100
Method: as §8

filaggrin [6] = test: Filaggrin synthesis by immunohistofluorescence in reconstructed epidermis
Method: as §7

involucrin [7] = test: Quantitative PCR analysis of involucrin expression in reconstructed epidermis; details: QPCR, 250 μm, control = 100
Method: as §8

For `CC(O)C[C@@H]1OC[C@@H](O)[C@H](O)[C@H]1O` (stereo partly drawn) [C-β-D-xylopyranoside-2-hydroxypropane], the “Expression of Collagen IV, Integration fluo” value (Collagen IV; 0.3%) was 120 % of control, the “Expression of Filaggrin, Integration fluo” value (shortened to “Expression of Filaggrin”) (filaggrin [1]; 0.1%) was 114 % of control and the “Expression of Filaggrin” value (filaggrin [1]; 0.3%) was 127 % of control. The “Expression of TGK, Integration fluo” value (Transglutaminase K (TGK); 0.03%) was 124 % of control, the “Expression of TGK, Integration fluo” value (Transglutaminase K (TGK); 0.1%) was 158 % of control and the “Expression of TGK, Integration fluo” value (Transglutaminase K (TGK); 0.3%) was 235 % of control. For the same compound, the “Expression of occludin, Integration fluo” value (occludin; 0.3%) was 78 % of control, the “Expression of ZO-1, Integration fluo” value ([2]; 0.03%) was 111 % of control and the “Expression of ZO-1, Integration fluo” value ([2]; 0.1%) was 124 % of control. The “Expression of ZO-1, Integration fluo” value ([2]; 0.3%) was 127 % of control, the “Expression of Involucrin, Integration fluo” value (involucrin [3]; 0.1%) was 109 % of control and the “Expression of Involucrin, Integration fluo” value (involucrin [3]; 0.3%) was 110 % of control. For the same compound, the “Expression of Claudin-1, Integration fluo” value (claudin-1 [4]; 0.03%) was 184 % of control and the “Expression of Claudin-1, Integration fluo” value (claudin-1 [4]; 0.1%) was 204 % of control.
For `[Ca+2].[Cl-].[Cl-]` [CaCl2], the “Expression of Filaggrin” value (filaggrin [1]; 1.5 mM) was 159 % of control, the “Expression of TGK, Integration fluo” value (Transglutaminase K (TGK); 1.5 mM) was 903 % of control and the “Expression of occludin, Integration fluo” value (occludin; 1.5 mM) was 296 % of control. For the same compound, the “Expression of ZO-1, Integration fluo” value ([2]; 1.5 mM) was 119 % of control, the “Expression of Involucrin, Integration fluo” value (involucrin [3]; 1.5 mM) was 126 % of control and the “Expression of Claudin-1, Integration fluo” value (claudin-1 [4]; 1.5 mM) was 200 % of control.
`NC(=O)c1cccnc1` [Niacinamide] was tested, and the Synthesis of loricin (loricrin) was 214 × 10^3 AU, the “Expression of TGMI (%)” value (TGM1) was 86% and the “Expression of CK10 (%)” value (CK10) was 100%. For the same compound, the “Efficacy/control (%), claudin-1” value (claudin-1 [5]; 250 μm) was “+10%”, the “Synthesis of claudin-1” value (claudin-1 [5]; day 9 to day 17, 250 μm) was 266 × 10^3 AU and the “Expression of ZO-1 (%)” value (ZO-1) was 91%. For the same compound, the “Efficacy/control (%), filaggrin” value (filaggrin [6]; 250 μm) was “+42%”, the Synthesis of filaggrin (filaggrin [6]; day 9 to day 17, 250 μm) was 941 × 10^3 AU and the “Expression of involucrin (%)” value (involucrin [7]) was 78%.
“TGF-β: positive control for expression of the marker Collagen IV, R&D Systems ref. 240-B” was tested, and the “Expression of Collagen IV, Integration fluo” value (Collagen IV; 10 ng/ml) was 176 % of control.

From patent US20260199223A1, “USE OF AN AUREOBASIDIUM PULLULANS EXTRACT ALONE OR IN COMBINATION WITH A C-GLYCOSIDE AS A COSMETIC ACTIVE PRINCIPLE” (L'OREAL, priority 2022, published 2026)
